Experimental data reported in paper PMC8591608, “DNDI-6148: A Novel Benzoxaborole Preclinical Candidate for the Treatment of Visceral Leishmaniasis” (Journal of Medicinal Chemistry, 2021).
Like-named read-outs stand apart in the source and are kept apart here.

Key:
[1] = tested on: L. infantum; test: Intramacrophage L. infantum assay; type: cell-based; settings: Leishmania infantum
Procedure, shortened: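 Ex vivo splenic amastigotes from infected hamsters used to infect primary macrophages (3 × 10^4 cells/4.5 × 10^5 parasites per well) in RPMI-1640 with 5% inactivated FCS. After 5 days' exposure, Giemsa-stained burdens counted microscopically versus untreated infected (100%) and uninfected (0%) controls; EC50 from 8-point 2-fold dilutions.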

[2] = MRC5 cytotoxicity assay; type: cell-based; settings: human, MRC5SV2 cells (human embryonic lung fibroblasts); Table 5; geometric mean of at least two independent tests
Procedure, shortened: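 PMM (harvested 2 days after 2% potato starch peritoneal stimulation) or MRC5SV2 human lung fibroblasts at 3 × 10^4 cells/mL were exposed to compound for three days at 37 °C, 5% CO2. Viability was read by resazurin fluorescence (λex 550, λem 590 nm) after 4 h, as % growth reduction vs untreated controls.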

[3] = tested on: L. infantum; test: L. infantum hamster model of VL; type: in vivo; settings: for reduction in parasite burden, bone marrow, 10 days / reduction in parasite burden, liver, 10 days / reduction in parasite burden, spleen, 10 days: 25 mg/kg BID p.o. for 10 days
Procedure: L. infantum (MHOM/MA/67/ITMAP263) and L. donovani (MHOM/ET/67/L82) were maintained in the golden (Syrian) hamster (Mesocricetus auratus). Ex vivo amastigotes were collected from the spleen of an infected donor hamster using two centrifugation purification steps: 230g for 10 min, keeping the supernatant layer, and 4100g for 30 min, keeping the pellet. The spleen parasite burden was assessed using the Stauber technique.[25] For in vitro assays, the inoculum was prepared in RPMI-1640 medium, supplemented with 200 mM L-glutamine, 16.5 mM NaHCO3, and 5% inactivated fetal calf serum. For the in vivo model, an infection inoculum containing 2 × 10^7 amastigotes/100 μL was prepared in phosphate-buffered saline (PBS).
Female golden hamsters for the in vivo model of visceral leishmaniasis were purchased from Janvier, France (body weight 80–100 g). This study using laboratory rodents was carried out in strict accordance with all mandatory guidelines (EU directives, including the Revised Directive 2010/63/EU on the protection of Animals used for Scientific Purposes that came into force on 01/01/2013, and the declaration of Helsinki in its latest version) and was approved by the ethical committee of the University of Antwerp, Belgium (UA-ECD 2011-74). Female golden hamsters for the pharmacokinetic study were purchased from Vital River, Beijing, China. This study was conducted following institutional review and in accordance with institutional and national guidelines at WuXi AppTec (the Institutional Animal Care and Use Committee (IACUC)). Balb/c mice for the in vivo model of visceral leishmaniasis (LSHTM) were purchased from Charles River, U.K., and related studies were conducted under license PPL 70/8427 from the U.K. Home Office.
Female golden hamsters were randomly allocated to experimental groups of six animals each, based on body weight. At the start of the experiment (Day 0), each animal was infected with L. infantum or L. donovani inoculum, delivered by intracardial injection. Six hamsters were assigned to the vehicle-treated, infected control group. Six hamsters were assigned per group (1 group/compound) for the evaluation of compound and miltefosine. […] At Day 35 (10 days after the final oral dose), all animals were euthanized and autopsies were conducted. The study evaluated the following parameters. • 1. Adverse effects: all animals were observed daily for the occurrence/presence of adverse effects. • 2. Body weight: all animals were weighed twice per week to monitor general health. • 3. Parasite burden: amastigote burdens in each target organ (liver, spleen, and bone marrow) were determined at Day 35. The organs of individual animals were weighed (except for bone marrow). Impression smears were stained with Giemsa for microscopic examination of the total amastigote burden, defined as the mean number of amastigotes per cell multiplied by the number of cells counted (minimum 500 nuclei); the results were expressed as a percentage reduction in amastigote burden compared to vehicle-treated, infected control animals.

[4] = target: T1, hERG potassium channels (Homo sapiens, UniProt Q12809); test: hERG inhibition, automated patch-clamp; type: cell-based; settings: at 30 μM
T1 construct: expressed in transfected cells; host or cells: Chinese hamster ovary (CHO) cells
T1 sequence (Q12809 whole entry): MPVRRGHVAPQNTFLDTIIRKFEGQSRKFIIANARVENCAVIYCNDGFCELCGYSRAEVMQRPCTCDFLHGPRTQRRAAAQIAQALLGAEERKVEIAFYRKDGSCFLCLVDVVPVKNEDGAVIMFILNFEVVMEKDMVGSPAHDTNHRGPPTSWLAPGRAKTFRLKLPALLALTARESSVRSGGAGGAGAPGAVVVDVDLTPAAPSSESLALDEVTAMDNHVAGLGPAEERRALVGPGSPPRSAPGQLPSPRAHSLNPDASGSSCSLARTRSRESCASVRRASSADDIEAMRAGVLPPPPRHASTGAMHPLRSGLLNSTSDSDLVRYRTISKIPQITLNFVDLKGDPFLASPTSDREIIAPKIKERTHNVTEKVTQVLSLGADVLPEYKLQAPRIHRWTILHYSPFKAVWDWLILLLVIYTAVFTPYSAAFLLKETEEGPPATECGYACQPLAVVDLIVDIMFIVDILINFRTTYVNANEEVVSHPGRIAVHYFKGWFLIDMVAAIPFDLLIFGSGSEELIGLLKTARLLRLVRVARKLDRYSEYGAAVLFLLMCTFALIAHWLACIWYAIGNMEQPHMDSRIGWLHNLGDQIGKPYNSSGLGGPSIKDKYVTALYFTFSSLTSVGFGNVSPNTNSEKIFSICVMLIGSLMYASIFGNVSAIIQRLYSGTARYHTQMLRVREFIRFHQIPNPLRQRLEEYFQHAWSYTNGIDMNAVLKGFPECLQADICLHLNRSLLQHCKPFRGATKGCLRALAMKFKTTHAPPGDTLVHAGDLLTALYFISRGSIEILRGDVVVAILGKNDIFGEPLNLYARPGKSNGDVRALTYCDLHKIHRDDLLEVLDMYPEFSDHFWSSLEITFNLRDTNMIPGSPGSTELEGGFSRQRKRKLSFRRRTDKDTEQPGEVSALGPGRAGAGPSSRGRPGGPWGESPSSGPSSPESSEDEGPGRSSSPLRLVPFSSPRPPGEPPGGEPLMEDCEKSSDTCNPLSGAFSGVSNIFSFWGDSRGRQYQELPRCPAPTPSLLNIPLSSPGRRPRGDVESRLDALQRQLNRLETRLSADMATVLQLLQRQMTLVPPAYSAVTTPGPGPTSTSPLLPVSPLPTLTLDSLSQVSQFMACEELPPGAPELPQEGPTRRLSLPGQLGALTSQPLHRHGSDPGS
Procedure: An automated patch-clamp method (QPatch HTX) was used by WuXi AppTec, China. Chinese hamster ovary cells expressing hERG potassium channels were incubated at room temperature with test compounds (0.12, 0.37, 1.11, 3.33, 10, and 30 μM, in triplicate) or amitriptyline as a positive control.

[5] = tested on: Salmonella typhimurium strains (TA98 and TA100); test: Mini-Ames reverse mutation screen; type: cell-based; settings: TA98 and TA100, with and without metabolic activation, 1.5 to 1000 μg/well
Procedure: Mini-Ames reverse mutation screens were conducted by WuXi AppTec, Co., China. Two Salmonella typhimurium strains (TA98 and TA100) were employed, both in the presence and absence of metabolic activation (induced rat liver S9). Test compounds were assessed at doses of 1.5, 4, 10, 25, 64, 160, 400, and 1000 μg per well, 2-aminoanthracene, 2-nitrofluorene, and sodium azide were used as positive controls, and the negative control was DMSO.

[6] = Hepatocyte stability, rat; type: in vitro ADME; settings: Sprague-Dawley, cryopreserved rat hepatocytes
Procedure: Tests were performed by WuXi AppTec, China. Following a viability check of cryopreserved hepatocytes from Sprague-Dawley rat, Beagle dog, or human, test compounds (at 1 μM) or positive controls 7-ethoxycoumarin and 7-hydroxycoumarin (at 3 μM) were incubated at 37 °C, 5% CO2 with hepatocytes in Williams’ Medium E. Following incubation of 15, 30, 60, 90, 120, 180, and 240 min, reactions were stopped by the addition of acetonitrile, the samples were centrifuged, and LC-MS/MS analysis was conducted using tolbutamide as an internal standard.

[7] = 14-day exploratory toxicology study in rats; settings: 14-day study
[8] = Table 5, geometric mean of at least two independent tests, read-out: intramacrophage L. infantum amastigote EC50

Compound | EC50 ([1]; Table 2, geometric mean of at least three independent assays, read-out: intramacrophage L. infantum EC50) [nM] | EC50 [1, 8] [nM] | CC50 at 3 days [2] [µM] | reduction in parasite burden, bone marrow, 5 days ([3]; 25 mg/kg BID p.o. for 5 days) [%] | reduction in parasite burden, liver, 5 days ([3]; 25 mg/kg BID p.o. for 5 days) [%] | reduction in parasite burden, spleen, 5 days ([3]; 25 mg/kg BID p.o. for 5 days) [%] | reduction in parasite burden, bone marrow, 10 days [3] [%] | reduction in parasite burden, liver, 10 days [3] [%] | reduction in parasite burden, spleen, 10 days [3] [%] | reduction in parasite burden, bone marrow, 5 days ([3]; 50 mg/kg BID p.o. for 5 days) [%] | reduction in parasite burden, liver, 5 days ([3]; 50 mg/kg BID p.o. for 5 days) [%] | reduction in parasite burden, spleen, 5 days ([3]; 50 mg/kg BID p.o. for 5 days) [%] | hERG inhibition [4] [%] | Ames assay result [5] | hepatocyte CLint at 1 μM [6] [µL/min/1e6 cells] | no adverse effect limit ([7]; male and female Sprague-Dawley rats) [mg/kg/day] | CC50 at 72 h [2] [µM] | toxicity finding ([7]; rats, daily dosing of 25 mg/kg)
Cc1c(C(=O)Nc2ccc3c(c2)B(O)OC3)nnn1-c1ccccn1 [Compound 23, N-(1-Hydroxy-1,3-dihydrobenzo[c][1,2]oxaborol-6-yl)-5-methyl-1-(pyridin-2-yl)-1H-1,2,3-triazole-4-carboxamide] | 1800 | 1800 | > 64 | 93.6 | 98.3 | 98.2 | 99.4 | 100 | 99.9 | 99.0 | 99.8 | 99.9 | < 20 | negative | 0.7 | 50 |  | 
Cc1c(-c2ccccn2)coc1C(=O)Nc1ccc2c(c1)B(O)OC2 [Compound 28, N-(1-Hydroxy-1,3-dihydrobenzo[c][1,2]oxaborol-6-yl)-3-methyl-4-(pyridin-2-yl)furan-2-carboxamide] |  | 500 |  | 95.7 | 98.9 | 97.8 | 84 | 99.4 | 96.9 | 99.1 | 99.9 | 99.9 |  |  |  |  | 18 | significant multiorgan toxicity
